Reference: patent US7939530B2, “Treatment of lymphoma using 10-propargyl-10-deazaaminopterin and gemcitabine” (Sloan-Kettering Institute for Cancer Research, priority 2004, dated 2011)

Legend:
SKI-DLCL-1 cells = experiment: Induction of apoptosis (YO-PRO-1/propidium iodide flow cytometry); format: cell-based, human; conditions: all drugs 1 nM, total exposure 72 hours, sequential: first drug 24 hours prior to second
Procedure: Ara-C, PDX and Gem in combined and scheduled exposures. In each case, the total exposure time was 72 hours. In sequential treatments, the first drug was administered 24 hours prior to the second drug.
To assess apoptosis occurring as a result of combination therapies, apoptosis was assessed using two well standardized techniques. In the first (YO-PRO), cell membrane permeability was determined by measuring fluorescence of treated and control cells. 2×10^7 SKI-DLBCL cells were treated with either MTX, Ara-C, Gem or PDX alone or combinations of drug given together or scheduled. All drugs were assayed at equimolar concentrations (i.e. 1 nM). The incubation conditions were modeled after the in vitro cytotoxicity experiments. Single agent drugs or combinations of all drugs studied without schedule considerations were incubated for 72 hours, while drugs that were studied in some schedule were introduced in a 24+48 incubation scheme (i.e. drug B added 24 hours following drug A, then incubated for an additional 48 hours for a total incubation time of 72 hours). Cells were then collected, washed twice and re-suspended at a concentration of 1×10^6/mL in DPBS. Membrane permeability was detected via the differential cellular permeability of the fluorescent dyes YO-PRO®-1 and propidium iodide by flow cytometry, as per the manufacturer's guidelines (Vybrant apoptosis kit #4, Molecular Probes, Eugene, Oreg.). In addition to monitoring apoptosis, cell cycle kinetic analyses were also performed on all treated cells based the propidium iodide binding. Apoptotic cells were noted to be permeable to the green fluorescent dye YO-PRO®-1 (em 530, FL-1), and impermeable to the red fluorescent dye propidium iodide (em 575, FL-3). Typically, […] cells allow the entrance of both dyes, whereas living cells are impermeable to both dyes.

[1] = test system: subcutaneous tumors of SKI; experiment: Preliminary combination xenograft experiment; format: in vivo, irradiated NOD-SCID mice; conditions: for tumor growth compared to the control: MTX 40 mg/kg (MTD), Ara-C 300 mg/kg (MTD) or combination at one-half the MTD, all sacrificed by week three
Procedure: Given the experience that SKI-DLCL-1 is the most PDX resistant line in the panel, it was selected for these in vivo synergy experiments. […] All animals were treated with the maximum tolerated dose (MTD) of each drug, save the combination studies.

[2] = Second combination xenograft experiment (FIG. 5); conditions: SCID beige (CBSCBG-MM double), mouse, in vivo, ip
Procedure: (§1) The same type of test was repeated to assess the in vivo efficacy of using combination therapies. […] Schedule dependent treatment was also determined by pretreating animals with PDX or MTX followed 24 hours later with Gem or Ara-C, respectively. One cohort of animals was treated with Gem followed by PDX. In all cases, the control animals received intraperitoneal injections of normal saline.
(§2) Tumor bearing mice were assessed for weight loss and tumor volume at least twice weekly for the duration of the experiment. The data are expressed as the average tumor volume (mm3) per group as a function of time. Tumors were assessed by measuring the two largest perpendicular axes (l=length, w=width) with standard calipers. Tumor volume was calculated using the formula 4/3 πr^3 where r=(l+w)/4. Animals were sacrificed when one dimensional tumor diameter exceeded 2.0 cm, or after loss of more than 10% of their body weight in accordance with institutional guidelines. Animals were housed in standard shoe box cages in temperature and humidity constant rooms on a 12 hour light and dark cycle. Food and water were supplied ad libitum. Animals were maintained in core animal facilities under an institute approved animal protocol.

SKI-DLBCL-1 xenograft = experiment: Second combination xenograft experiment (FIG. 5); conditions: SKI-DLBCL; PDX and Gem at one-quarter of the MTD (15 mg/kg); MTX, Ara-C alone at MTD; ip twice weekly, 4 doses
Procedure: as §1, §2

[3] = test system: SKI-DLCL-1 lymphoma cells; experiment: Trypan Blue Exclusion cytotoxicity assay of single agents and combinations; format: cell-based, human; conditions: MTX 10 nM, PDX 1 nM, Ara-C 40 nM, Gem 10 nM, control = 1
From the text: As set forth in greater detail in the examples herein, combination therapy using PDX and gemcitabine has been tested in vitro and in in vivo model systems for efficacy against lymphoma. Table 1 sets forth data obtained in a cytotoxicity assay (Example 2) using SKI-DLCL-1 lymphoma cells. SKI-DLCL-1 is a diffuse large b cell lymphoma (DLBCL) cell line that is particularly resistant to PDX.
In Table 1, the additive effect is in each case the % of control for the single agents multiplied together. The expected additive effect for PDX+Gem is better than for MTX and ara-C, because the agents are individually better. What is observed for both MTX/AraC combinations and PDX/Gem combinations is that the actual result is better than the predicted additive result. The extent of this synergism is quantified in Table 1 as (actual-additive)/additive so that the amount of reduction that occurs through the use of the combination is expressed as a percentage of the expected additive benefit.
To evaluate cytotoxicity of combination of PDX and GEM, a Trypan Blue Exclusion Assay was performed by aliquoting 5×10^5 SKI-DLBCL cells into each well of a 24 well plate with a final volume of 1 milliliter. Each drug was added in duplicate to the plate wells as follows: alone (MTX 10 nM, PDX 1 nM, Ara-C 40 nM, or Gem 10 nM), PDX+Gem or MTX+Ara-C for 48 h (hours). For the scheduled administration of drug, PDX or MTX alone were dispensed in additional duplicate wells. After 24 hours Gem and Ara-C were added to these wells, respectively, and incubated for 48 hours. At the end of incubation, 20 l of each cell culture was added to 20 l of trypan blue, after which […] was added to a hemocytometer (Hausser Scientific, Horsham, Pa.), where viable cells were counted based upon the presence (dead cells) or exclusion (live cells) of dye.

[4] = test system: caspase 3 in SKI-DLCL-1 cells; experiment: Caspase 3 activation (EnzChek Caspase-3 Assay Kit #2, Z-DEVD-R110 cleavage); format: cell-based, human; conditions: for Fluorescence at 485ex/527em: 1 nM, control 134.3; for Difference from control: fluorescence at 485ex/527em
Procedure: To further evaluate the activity of PDX and Gem combinations, Caspase activity was tested by EnzChek® Caspase-3 Assay Kit #2 (Molecular Probes) based upon the fluorometric detection of caspase-dependent Z-DEVD-R110 cleavage (rhodamine 110 bis-[N-CBZ-L-aspartyl-L-glutamyl-L-valyl-L-aspartic acid amide], a non-fluorescent bisamide), which, via a two step process, first yields the monoamide product (weakly fluorescent) and then the fluorescent product R110 (rhodamine 110, strongly fluorescent). Detection was performed on a Fluoroskan Ascent FL fluorescent plate reader (Thermo Lab Systems, Helsinki, Finland) according to the manufacturer's guidelines.

[5] = cited from earlier work
SKI-DLBCL-1 xenografts = experiment: TUNEL immunohistochemical staining for apoptosis in xenografts; format: in vivo, mice; conditions: day 21; four doses on days 0, 3, 7 and 10; MTX 40 mg/kg, PDX 60 mg/kg
Procedure: Immunohistochemical staining for apoptosis as measured by terminal deoxynucleotide transferase-mediated nick end-labeling (TUNEL) was performed on SKI-DLBCL-1 xenografts from mice sacrificed at day 21 following initiation of antifolate therapy. Mice received four doses of saline, MTX (40 mg/kg) or PDX (60 mg/kg) on days 0, 3, 7 and 10.

[6] = test system: human HT (diffuse large B cell) non-Hodgkin's lymphoma xenografts; experiment: Subcutaneous lymphoma xenograft treatment; format: in vivo; conditions: MTX 40 mg/kg; for Avg Tumor Diameter (mm ± SE): at the nadir of tumor regression
From the text: (§3) In order to study the effects of PDX on lymphoma growth in vivo, subcutaneous transplantation models in NOD/SCID mice were generated using three established human lymphoma cell line representative of aggressive transformed FL (RL) and de novo extranodal DLBCL (HT; SKI-DLCL-1) histologies. Six to eight week old non-obsese diabetic severe combined immunodeficient (NOD/SCID) mice (Jackson Laboratories, Bar Harbor, Me.) were sub-lethally irradiated with […] from a gamma source and inoculated with 10×10^6 lymphoma cells via a subcutaneous route. When tumor volumes approached 100 mm^3, mice were divided into three groups, averaging 3-8 mice per group. Mice were treated with normal saline or the maximum tolerated dose (MTD) of MTX (40 mg/kg) or PDX (60 mg/kg) via an intraperitoneal route twice weekly for two weeks (four total doses). […] (Sirotnak, et al., Cancer Chemother. Pharmacol. 12: 26-30 (1984); Sirotnak et al., Cancer Chemother. Pharmacol. 42: 313-318 (1998).
(§4) Engraftment rates in this experiment ranged from 80 to 90%. Palpable tumors formed under the skin approximately 7-10 days after inoculation and were readily measurable with calipers. Mice with subcutaneous lymphoma growths survived an average of 40-50 days after inoculation.

[7] = test system: human SKI-DLCL-1 (de novo diffuse large B cell) non-Hodgkin's lymphoma xenografts; experiment: Subcutaneous lymphoma xenograft treatment; format: in vivo; conditions: MTX 40 mg/kg
From the text: as §3, §4

[8] = test system: human RL (transformed follicular) non-Hodgkin's lymphoma xenografts; experiment: Subcutaneous lymphoma xenograft treatment; format: in vivo; conditions: MTX 40 mg/kg
From the text: as §3, §4

[9] = PDX 60 mg/kg ip twice weekly for two weeks

SMILES: Nc1ccn([C@@H]2O[C@H](CO)[C@@H](O)[C@@H]2O)c(=O)n1 [Ara-C, cytarabine]
- % change in apoptosis (SKI-DLCL-1 cells): −3.08%
- tumor growth compared to the control [1]: modest growth delay
- MTD at 2 weeks [2]: 300 mg/kg
- xenograft outcome in words (SKI-DLBCL-1 xenograft): sacrificed early due to excessive tumor growth
- fraction of control [3]: 0.76
- Fluorescence at 485ex/527em [4]: 141.1
- Difference from control [4]: 6.8

SMILES: Nc1ccn([C@@H]2O[C@H](CO)[C@@H](O)C2(F)F)c(=O)n1 [Gem, 1-(2′,2′-difluoro-β-D-arabinofuranosyl) cytosine]
- % change in apoptosis (SKI-DLCL-1 cells): 33.76%
- tumor volume as % of initial tumor volume ([1]; 60 mg/kg, regrowth by day 44 after initial response): 318%
- MTD at 2 weeks [2]: 60 mg/kg
- fraction of control [3]: 0.72
- Fluorescence at 485ex/527em [4]: 195.4
- Difference from control [4]: 61.1

SMILES: CN(Cc1cnc2nc(N)nc(N)c2n1)c1ccc(C(=O)N[C@@H](CCC(=O)O)C(=O)O)cc1 [MTX, methotrexate]
- % change in apoptosis (SKI-DLCL-1 cells): −12.24%
- maximum tolerated dose (MTD) ([5]; intraperitoneal, twice weekly for two weeks): 40 mg/kg
- toxic deaths at the MTD ([5]; nude mice): no toxic deaths
- tumor growth compared to the control [1]: modest growth delay
- apoptotic cells in tumor tissue (TUNEL) (SKI-DLBCL-1 xenografts): little or no evidence of apoptotic cells
- Complete Regression (no/total) ([6]; PDX 60 mg/kg): 0/7
- complete tumor regression (% of mice) ([6]; PDX 60 mg/kg): no tumor regression
- Avg change in Tumor Volume (mm^3 ± SE) [6, 9]: +300 ± 225 mm^3
- Avg Tumor Diameter (mm ± SE) ([6]; PDX 60 mg/kg): 8.7 ± 2.0 mm
- Avg Tumor Diameter (mm ± SE) ([6]; PDX 60 mg/kg, listed as MDX): 8.7 mm
- Complete Regression (no/total) ([7]; PDX 60 mg/kg): 0/10
- tumor regressions / complete remissions (% of mice) ([7]; PDX 60 mg/kg): no regressions
- Avg Tumor Diameter (mm ± SE) [7, 9]: 9.5 ± 0.4 mm
- Avg change in Tumor Volume (mm^3 ± SE) [7, 9]: +299 ± 58 mm^3
- Complete Regression (no/total) ([8]; PDX 60 mg/kg): 0/12
- tumor regressions (% of mice) ([8]; PDX 60 mg/kg): no regressions
- Avg Tumor Diameter (mm ± SE) [8, 9]: 10.9 ± 0.5 mm
- Avg change in Tumor Volume (mm^3 ± SE) [8, 9]: +619 ± 108 mm^3
- xenograft outcome in words (SKI-DLBCL-1 xenograft): sacrificed early due to excessive tumor growth
- fraction of control [3]: 0.92
- Fluorescence at 485ex/527em [4]: 131
- Difference from control [4]: −3.3
